Laboratory results as given in ChEMBL document CHEMBL4414679, “Discovery of 4,6-pyrimidinediamine derivatives as novel dual EGFR/FGFR inhibitors aimed EGFR/FGFR1-positive NSCLC” (Eur J Med Chem, 2020).
Calls of active or inactive are those of the source. The calls are words filed in the database; no cut-off is given here.

Key:
[1] = MRT in Sprague-Dawley rat at 30 mg/kg, po measured upto 24 hrs by UPLC-MS/MS; type: ADME, organism-based; conditions: in vivo
[2] = target: T1, Epidermal growth factor receptor (Homo sapiens, UniProt P00533); experiment: Inhibition of EGF-induced EGFR phosphorylation in serum-starved human HCC827 cells upto 10 uM incubated for 1 hr by Western blot analysis; type: cell-based
T1 sequence (P00533 whole entry): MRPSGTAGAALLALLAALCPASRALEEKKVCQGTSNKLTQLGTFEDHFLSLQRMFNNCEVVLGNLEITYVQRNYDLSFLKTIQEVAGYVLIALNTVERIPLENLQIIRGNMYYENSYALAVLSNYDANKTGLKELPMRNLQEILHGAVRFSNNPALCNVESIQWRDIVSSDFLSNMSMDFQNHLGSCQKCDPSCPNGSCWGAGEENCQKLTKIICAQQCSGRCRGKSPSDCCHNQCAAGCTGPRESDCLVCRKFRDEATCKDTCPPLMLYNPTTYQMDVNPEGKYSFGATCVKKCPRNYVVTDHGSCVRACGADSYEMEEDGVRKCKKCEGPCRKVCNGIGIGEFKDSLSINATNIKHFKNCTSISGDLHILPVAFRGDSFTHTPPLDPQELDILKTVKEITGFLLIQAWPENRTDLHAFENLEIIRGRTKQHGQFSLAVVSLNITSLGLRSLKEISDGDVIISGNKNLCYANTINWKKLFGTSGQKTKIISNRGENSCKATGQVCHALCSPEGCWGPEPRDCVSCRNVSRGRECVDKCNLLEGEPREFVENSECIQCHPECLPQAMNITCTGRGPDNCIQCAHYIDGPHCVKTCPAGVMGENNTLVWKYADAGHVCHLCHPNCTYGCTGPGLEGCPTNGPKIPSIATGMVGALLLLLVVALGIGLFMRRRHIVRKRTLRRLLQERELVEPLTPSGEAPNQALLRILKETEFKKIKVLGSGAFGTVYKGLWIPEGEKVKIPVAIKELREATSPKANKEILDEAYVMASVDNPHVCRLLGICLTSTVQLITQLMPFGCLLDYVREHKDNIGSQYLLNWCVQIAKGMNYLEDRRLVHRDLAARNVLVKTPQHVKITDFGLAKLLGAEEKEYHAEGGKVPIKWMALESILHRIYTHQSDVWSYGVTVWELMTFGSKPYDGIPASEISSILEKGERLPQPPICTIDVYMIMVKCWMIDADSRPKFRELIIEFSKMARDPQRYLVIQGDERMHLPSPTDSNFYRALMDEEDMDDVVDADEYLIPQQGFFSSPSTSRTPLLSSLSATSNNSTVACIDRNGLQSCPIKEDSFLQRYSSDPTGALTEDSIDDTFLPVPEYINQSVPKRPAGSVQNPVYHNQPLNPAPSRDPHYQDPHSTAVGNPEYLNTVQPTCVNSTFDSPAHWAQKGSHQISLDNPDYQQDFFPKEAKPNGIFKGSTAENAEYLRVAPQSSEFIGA

[3] = Volume of distribution in Sprague-Dawley rat at 30 mg/kg, po measured upto 24 hrs by UPLC-MS/MS; type: ADME, organism-based; conditions: in vivo
PC-9 [4] = experiment: Antiproliferative activity against human PC9 cells assessed as inhibition of cell growth at 10 uM incubated for 48 hrs by MTT assay relative to control; type: functional; conditions: PC-9, 48 h
NCI-H226 [5] = experiment: Induction of apoptosis in human NCI-H226 cells assessed as viable cells at 1 uM measured after 24 hrs by Annexin-V/propidium iodide staining-based flow cytometric analysis (reference value: 93.4%); type: functional; conditions: NCI-H226, 24 h, read-out: Activity
[6] = target: T1, Epidermal growth factor receptor; experiment: Inhibition of EGFR in gefitinib-insensitive human HCC827GR cells assessed as reduction in EGF-induced EGFR phosphorylation upto 10 uM measured after 2 hrs by western blot analysis
Mus musculus [7] = experiment: Down regulation of EGFR phosphorylation in BALB/c nude mouse xenografted with human HCC827GR cells at 15 mg/kg, ip dosed by western blot analysis; type: functional, organism-based
NCI-H226 [8] = experiment: Induction of cell cycle arrest in human NCI-H226 cells assessed as accumulation of cells at G1 measured after 24 hrs by flow cytometry; type: functional, cell-based
[9] = target: T1, Epidermal growth factor receptor; experiment: Inhibition of EGFR in serum-starved human HCC827 cells assessed as reduction in EGF-induced AKT phosphorylation upto 10 uM incubated for 1 hr by Western blot analysis; type: cell-based
[10] = target: T1, Epidermal growth factor receptor; experiment: Inhibition of N-terminal GST-tagged human EGFR cytoplasmic domain (669-1210 AA) expressed in baculovirus using FAM-labelled peptide as substrate pre-incubated for 10 mins followed by substrate addition by mobility shift assay
Mus musculus [11] = experiment: Down regulation of FGFR1 phosphorylation in BALB/c nude mouse xenografted with human HCC827GR cells at 15 mg/kg, ip dosed by western blot analysis; type: functional, organism-based
[12] = target: Fibroblast growth factor receptor 2 (Homo sapiens) (UniProt P21802); experiment: Inhibition of N-terminal GST tagged human FGFR2 cytoplasmic domain (399 to 821 AA) expressed in baculovirus at 10 uM using FAM-labelled peptide as substrate pre-incubated for 10 mins followed by substrate addition by mobility shift assay relative to control
[13] = target: Proto-oncogene tyrosine-protein kinase Src (Homo sapiens) (UniProt P12931); experiment: Inhibition of full length N-terminal GST-tagged human SRC (1 to 536 AA) expressed in baculovirus at 10 uM using FAM-labelled peptide as substrate pre-incubated for 10 mins followed by substrate addition by mobility shift assay relative to control
[14] = test system: Epidermal growth factor receptor (Homo sapiens), P00533 [T790M]; experiment: Inhibition of GST-tagged human EGFR T790M mutant expressed in baculovirus at 10 uM using FAM-labelled peptide as substrate pre-incubated for 10 mins followed by substrate addition by mobility shift assay relative to control
Epidermal growth factor receptor (Homo sapiens), P00533 [T790M], sequence (P00533 whole entry T790M): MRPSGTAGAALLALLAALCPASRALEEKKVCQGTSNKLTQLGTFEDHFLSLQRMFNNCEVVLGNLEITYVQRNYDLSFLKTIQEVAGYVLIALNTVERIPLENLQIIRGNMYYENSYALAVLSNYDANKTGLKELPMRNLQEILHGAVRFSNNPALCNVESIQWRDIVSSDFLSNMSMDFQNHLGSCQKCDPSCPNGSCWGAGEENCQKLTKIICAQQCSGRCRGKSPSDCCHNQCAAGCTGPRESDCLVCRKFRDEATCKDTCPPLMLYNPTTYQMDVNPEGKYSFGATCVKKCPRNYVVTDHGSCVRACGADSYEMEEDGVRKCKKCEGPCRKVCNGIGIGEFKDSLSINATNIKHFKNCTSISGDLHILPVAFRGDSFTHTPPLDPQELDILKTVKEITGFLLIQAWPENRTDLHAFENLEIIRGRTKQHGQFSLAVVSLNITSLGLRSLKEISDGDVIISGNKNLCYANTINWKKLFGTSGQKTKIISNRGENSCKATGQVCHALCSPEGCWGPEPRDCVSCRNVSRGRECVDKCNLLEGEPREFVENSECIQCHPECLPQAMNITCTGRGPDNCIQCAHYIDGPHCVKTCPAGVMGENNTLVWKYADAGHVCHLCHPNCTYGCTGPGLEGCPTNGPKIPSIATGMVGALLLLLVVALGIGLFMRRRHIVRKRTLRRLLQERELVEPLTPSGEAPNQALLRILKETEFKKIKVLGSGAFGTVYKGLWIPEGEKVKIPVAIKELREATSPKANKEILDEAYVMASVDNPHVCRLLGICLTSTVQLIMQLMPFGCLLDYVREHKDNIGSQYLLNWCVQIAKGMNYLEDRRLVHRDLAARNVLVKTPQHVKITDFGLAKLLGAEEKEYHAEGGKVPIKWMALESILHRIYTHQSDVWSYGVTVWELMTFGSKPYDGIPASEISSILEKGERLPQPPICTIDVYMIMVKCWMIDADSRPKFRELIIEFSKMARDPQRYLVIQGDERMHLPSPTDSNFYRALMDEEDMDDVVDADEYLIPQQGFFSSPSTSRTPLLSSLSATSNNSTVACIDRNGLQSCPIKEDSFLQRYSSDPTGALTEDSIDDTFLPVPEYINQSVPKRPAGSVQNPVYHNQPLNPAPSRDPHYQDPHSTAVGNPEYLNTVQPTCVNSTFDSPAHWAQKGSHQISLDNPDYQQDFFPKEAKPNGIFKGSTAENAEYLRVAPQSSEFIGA

[15] = AUC (0 to infinity) in Sprague-Dawley rat at 30 mg/kg, po measured upto 24 hrs by UPLC-MS/MS; type: ADME, organism-based; design: dose 30 mg/kg, route oral, time infinity; conditions: in vivo
[16] = target: T1, Epidermal growth factor receptor; experiment: Inhibition of EGFR in gefitinib-insensitive human HCC827GR cells assessed as reduction in EGF-induced Akt phosphorylation upto 10 uM measured after 2 hrs by western blot analysis
[17] = target: T1, Epidermal growth factor receptor; experiment: Inhibition of EGF-induced EGFR phosphorylation in serum-starved human PC9 cells upto 10 uM incubated for 1 hr by Western blot analysis
[18] = target: T2, Fibroblast growth factor receptor 1 (Homo sapiens, UniProt P11362); experiment: Inhibition of N-terminal GST-tagged human FGFR1 cytoplasmic domain (398-822 AA) expressed in baculovirus using FAM-labelled peptide as substrate pre-incubated for 10 mins followed by substrate addition by mobility shift assay
[19] = target: Fibroblast growth factor receptor 4 (Homo sapiens) (UniProt P22455); experiment: Inhibition of N-terminal GST tagged human FGFR4 cytoplasmic domain (460 to 802 AA) expressed in baculovirus at 10 uM using FAM-labelled peptide as substrate pre-incubated for 10 mins followed by substrate addition by mobility shift assay relative to control
Fibroblast growth factor receptor 4 (Homo sapiens), sequence (P22455 22-802 limits assumed): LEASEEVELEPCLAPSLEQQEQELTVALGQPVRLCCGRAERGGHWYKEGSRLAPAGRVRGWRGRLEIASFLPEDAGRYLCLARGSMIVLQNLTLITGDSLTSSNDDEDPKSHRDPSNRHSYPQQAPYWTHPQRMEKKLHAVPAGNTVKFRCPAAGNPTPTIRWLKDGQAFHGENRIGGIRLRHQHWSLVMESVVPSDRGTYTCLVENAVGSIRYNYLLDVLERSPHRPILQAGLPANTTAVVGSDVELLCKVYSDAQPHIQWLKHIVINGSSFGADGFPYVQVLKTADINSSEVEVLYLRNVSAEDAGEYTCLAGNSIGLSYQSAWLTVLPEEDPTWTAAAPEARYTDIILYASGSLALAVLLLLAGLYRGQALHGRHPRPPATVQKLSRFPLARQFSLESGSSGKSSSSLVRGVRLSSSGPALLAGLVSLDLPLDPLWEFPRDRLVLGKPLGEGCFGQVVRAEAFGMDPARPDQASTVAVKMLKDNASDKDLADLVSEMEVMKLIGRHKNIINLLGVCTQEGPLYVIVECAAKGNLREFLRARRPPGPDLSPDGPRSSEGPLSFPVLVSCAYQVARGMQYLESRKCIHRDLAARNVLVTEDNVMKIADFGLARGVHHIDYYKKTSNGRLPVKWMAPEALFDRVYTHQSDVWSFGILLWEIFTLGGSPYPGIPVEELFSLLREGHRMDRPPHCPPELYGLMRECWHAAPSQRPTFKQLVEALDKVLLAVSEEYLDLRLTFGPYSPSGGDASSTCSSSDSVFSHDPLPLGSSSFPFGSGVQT

[20] = target: Epidermal growth factor receptor (Homo sapiens, UniProt P00533, L858R); experiment: Inhibition of recombinant human EGFR L858R mutant expressed in baculovirus using FAM-labelled peptide as substrate pre-incubated for 10 mins followed by substrate addition by mobility shift assay
[21] = target: Vascular endothelial growth factor receptor 3 (Homo sapiens) (UniProt P35916); experiment: Inhibition of N-terminal GST tagged human FLT4 cytoplasmic domain (798 to 1298 AA) expressed in baculovirus at 10 uM using FAM-labelled peptide as substrate pre-incubated for 10 mins followed by substrate addition by mobility shift assay relative to control
[22] = Induction of apoptosis in gefitinib-insensitive human HCC827GR cells assessed as late apoptotic cells at 1 uM measured after 24 hrs by Annexin-V/propidium iodide staining-based flow cytometric analysis (reference value: 1.5%); type: functional
[23] = Induction of apoptosis in gefitinib-insensitive human HCC827GR cells assessed as necrotic cells at 5 uM measured after 24 hrs by Annexin-V/propidium iodide staining-based flow cytometric analysis (reference value: 5.8%); type: functional
NCI-H1581 = experiment: Antiproliferative activity against human NCI-H1581 cells incubated for 48 hrs by MTT assay; type: functional, cell-based; conditions: NCI-H1581, 48 h
NCI-H226 [24] = experiment: Induction of apoptosis in human NCI-H226 cells assessed as viable cells at 10 uM measured after 24 hrs by Annexin-V/propidium iodide staining-based flow cytometric analysis (reference value: 93.4%); type: functional; conditions: NCI-H226, 24 h, read-out: Activity
NCI-H520 = experiment: Antiproliferative activity against human NCI-H520 cells assessed as inhibition of cell growth at 10 uM incubated for 48 hrs by MTT assay relative to control; type: functional; conditions: NCI-H520, 48 h
[25] = target: Cyclin-dependent kinase 1/cyclin B1 (Homo sapiens) (UniProt P06493+P14635); experiment: Inhibition of CDC2/cyclinB1 (unknown origin) at 10 uM using FAM-labelled peptide as substrate pre-incubated for 10 mins followed by substrate addition by mobility shift assay relative to control; type: protein-complex assay
Cyclin-dependent kinase 1/cyclin B1 (Homo sapiens), sequence (P06493 whole entry, looked up): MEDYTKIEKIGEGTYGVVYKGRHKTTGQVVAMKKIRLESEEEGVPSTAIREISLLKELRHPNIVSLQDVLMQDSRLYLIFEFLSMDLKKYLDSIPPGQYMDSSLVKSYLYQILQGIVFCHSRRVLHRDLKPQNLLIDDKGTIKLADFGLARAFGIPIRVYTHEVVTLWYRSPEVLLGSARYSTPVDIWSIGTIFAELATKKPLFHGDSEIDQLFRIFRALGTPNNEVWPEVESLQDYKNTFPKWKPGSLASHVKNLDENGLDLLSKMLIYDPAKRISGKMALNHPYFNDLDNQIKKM
Cyclin-dependent kinase 1/cyclin B1 (Homo sapiens), sequence (P14635 whole entry, looked up): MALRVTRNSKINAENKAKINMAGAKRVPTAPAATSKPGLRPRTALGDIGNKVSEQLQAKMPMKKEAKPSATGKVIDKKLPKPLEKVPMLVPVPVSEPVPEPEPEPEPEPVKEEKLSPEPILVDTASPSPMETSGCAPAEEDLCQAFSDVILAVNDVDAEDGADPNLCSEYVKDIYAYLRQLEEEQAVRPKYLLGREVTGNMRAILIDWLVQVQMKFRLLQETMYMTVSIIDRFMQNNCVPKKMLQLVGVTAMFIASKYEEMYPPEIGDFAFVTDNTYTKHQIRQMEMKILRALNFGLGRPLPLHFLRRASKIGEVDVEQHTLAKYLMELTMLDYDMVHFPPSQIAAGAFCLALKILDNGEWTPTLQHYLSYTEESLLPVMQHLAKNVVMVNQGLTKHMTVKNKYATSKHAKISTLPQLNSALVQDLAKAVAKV

PC-9 [26] = experiment: Antiproliferative activity against human PC9 cells incubated for 48 hrs by MTT assay; type: functional, cell-based; conditions: PC-9, 48 h
[27] = target: T2, Fibroblast growth factor receptor 1; experiment: Inhibition of N-terminal GST-tagged human FGFR1 cytoplasmic domain (398-822 AA) expressed in baculovirus at 10 uM using FAM-labelled peptide as substrate pre-incubated for 10 mins followed by substrate addition by mobility shift assay relative to control
Target sequence in this assay (P11362 22-822 limits assumed): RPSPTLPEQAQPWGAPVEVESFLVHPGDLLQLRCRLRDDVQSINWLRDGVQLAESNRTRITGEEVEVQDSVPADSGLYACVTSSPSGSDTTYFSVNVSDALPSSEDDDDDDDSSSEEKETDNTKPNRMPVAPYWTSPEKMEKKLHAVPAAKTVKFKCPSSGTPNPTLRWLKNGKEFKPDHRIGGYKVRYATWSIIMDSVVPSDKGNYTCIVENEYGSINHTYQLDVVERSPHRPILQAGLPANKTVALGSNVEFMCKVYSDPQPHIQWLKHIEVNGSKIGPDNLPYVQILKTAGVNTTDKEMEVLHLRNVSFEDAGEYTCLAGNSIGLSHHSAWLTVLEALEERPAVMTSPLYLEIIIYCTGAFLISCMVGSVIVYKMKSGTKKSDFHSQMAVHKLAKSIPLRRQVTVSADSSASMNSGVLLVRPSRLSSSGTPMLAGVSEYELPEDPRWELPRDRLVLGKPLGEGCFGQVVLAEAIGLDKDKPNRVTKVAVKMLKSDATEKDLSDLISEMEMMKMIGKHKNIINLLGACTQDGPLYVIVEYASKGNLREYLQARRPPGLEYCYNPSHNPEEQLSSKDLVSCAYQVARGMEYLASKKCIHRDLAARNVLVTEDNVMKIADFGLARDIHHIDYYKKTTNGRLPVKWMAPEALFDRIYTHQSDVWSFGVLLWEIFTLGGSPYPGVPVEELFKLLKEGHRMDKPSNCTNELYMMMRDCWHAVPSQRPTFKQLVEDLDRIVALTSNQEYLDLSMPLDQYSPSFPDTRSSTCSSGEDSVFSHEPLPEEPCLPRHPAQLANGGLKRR

[28] = target: T2, Fibroblast growth factor receptor 1; experiment: Inhibition of FGFR1 in gefitinib-insensitive human HCC827GR cells assessed as reduction in FGF-induced FGFR1 phosphorylation upto 10 uM measured after 2 hrs by western blot analysis
Target sequence in this assay (P11362 22-822 limits assumed): as above

[29] = target: T2, Fibroblast growth factor receptor 1; experiment: Inhibition of FGFR1 in gefitinib-insensitive human HCC827GR cells assessed as reduction in FGF-induced Akt phosphorylation upto 10 uM measured after 2 hrs by western blot analysis
Target sequence in this assay (P11362 22-822 limits assumed): as above

COc1ccc(OC)c(Nc2cc(NC(=O)Nc3c(Cl)cccc3Cl)ncn2)c1
MRT [1]: 6.73 h | inhibition [2]: Active | Vd [3]: 0.03 L/kg | inhibition at 10 µM (PC-9 [4]): 95% | viability at 1 µM (NCI-H226 [5]): 87.7% | inhibition [6]: Active | Activity (Mus musculus [7]): Active | Activity (NCI-H226 [8]): Active | inhibition [9]: Active | IC50 [10]: 202 nM | Activity (Mus musculus [11]): Active | inhibition [12]: 82.5% | inhibition [13]: 45.8% | inhibition [14]: 86.8% | AUC(0-inf) [15]: 13000 ng·h/mL | inhibition [16]: Active | inhibition [17]: Active | IC50 [18]: 808 nM | inhibition [19]: 12.3% | IC50 [20]: 39 nM | inhibition [21]: 43.6% | Activity [22]: 16% | Activity [23]: 4.1% | IC50 (NCI-H1581): 2530 nM | viability at 10 µM (NCI-H226 [24]): 71.9% | inhibition at 10 µM (NCI-H520): 74% | inhibition [25]: -9.78% | IC50 (PC-9 [26]): 1340 nM | inhibition [27]: 88.5% | inhibition [28]: Active | inhibition [29]: Active
